According to ChEMBL document CHEMBL3259801, “Design and synthesis of new vancomycin derivatives” (Bioorg Med Chem Lett, 2014):
Converted amounts (≈) assume the structure as drawn.

What was measured:
Staphylococcus aureus [1] = assay: Antibacterial activity against vancomycin-sensitive Staphylococcus aureus Newman assessed as inhibition of bacterial growth after 16 hrs; format: functional, organism-based
Staphylococcus aureus [2] = assay: Antibacterial activity against vancomycin-intermediate resistant Staphylococcus aureus Mu50 assessed as inhibition of bacterial growth after 16 hrs; format: functional, organism-based; conditions: Mu50, 16 h

Structure (SMILES) | IC50 (Staphylococcus aureus [1]) [µg/mL] | IC50 (Staphylococcus aureus [2]) [µg/mL]
CN[C@H](CC(C)C)C(=O)N[C@H]1C(=O)N[C@@H](CC(N)=O)C(=O)N[C@H]2C(=O)N[C@H]3C(=O)N[C@H](C(=O)N[C@H](C(=O)O)c4cc(O)cc(O)c4-c4cc3ccc4O)[C@H](O)c3ccc(c(Cl)c3)Oc3cc2cc(c3O[C@@H]2O[C@H](CO)[C@@H](O)[C@H](O)[C@H]2O[C@H]2C[C@](C)(NCc3ccc(-c4ccc(Cl)cc4)cc3)[C@H](O)[C@H](C)O2)Oc2ccc(cc2Cl)[C@H]1O | < 0.125 | 2 (≈ 1.21 µM)
CN[C@H](CC(C)C)C(=O)N[C@H]1C(=O)N[C@@H](CC(N)=O)C(=O)N[C@H]2C(=O)N[C@H]3C(=O)N[C@H](C(=O)N[C@H](C(=O)O)c4cc(O)cc(O)c4-c4cc3ccc4O)[C@H](O)c3ccc(c(Cl)c3)Oc3cc2cc(c3O[C@@H]2O[C@H](CO)[C@@H](O)[C@H](O)[C@H]2O[C@H]2C[C@](C)(NCC(OCc3ccccc3)C(=O)OC)[C@H](O)[C@H](C)O2)Oc2ccc(cc2Cl)[C@H]1O (stereo not given in full) | 8 (≈ 4.87 µM) | 32 (≈ 19.5 µM)
CN[C@H](CC(C)C)C(=O)N[C@H]1C(=O)N[C@@H](CC(N)=O)C(=O)N[C@H]2C(=O)N[C@H]3C(=O)N[C@H](C(=O)N[C@H](C(=O)O)c4cc(O)cc(O)c4-c4cc3ccc4O)[C@H](O)c3ccc(c(Cl)c3)Oc3cc2cc(c3O[C@@H]2O[C@H](CO)[C@@H](O)[C@H](O)[C@H]2O[C@H]2C[C@](C)(NCC(OCc3ccc(-c4ccc(Cl)cc4)cc3)C(=O)OC)[C@H](O)[C@H](C)O2)Oc2ccc(cc2Cl)[C@H]1O (stereo not given in full) | < 0.125 | 2 (≈ 1.14 µM)
CCCCOC(CN[C@@]1(C)C[C@H](O[C@H]2[C@H](Oc3c4cc5cc3Oc3ccc(cc3Cl)[C@@H](O)[C@@H](NC(=O)[C@@H](CC(C)C)NC)C(=O)N[C@@H](CC(N)=O)C(=O)N[C@H]5C(=O)N[C@H]3C(=O)N[C@H](C(=O)N[C@H](C(=O)O)c5cc(O)cc(O)c5-c5cc3ccc5O)[C@H](O)c3ccc(c(Cl)c3)O4)O[C@H](CO)[C@@H](O)[C@@H]2O)O[C@@H](C)[C@H]1O)C(=O)OC (stereo not given in full) | 16 (≈ 9.95 µM) | 64 (≈ 39.8 µM)
CCCCCCOC(CN[C@@]1(C)C[C@H](O[C@H]2[C@H](Oc3c4cc5cc3Oc3ccc(cc3Cl)[C@@H](O)[C@@H](NC(=O)[C@@H](CC(C)C)NC)C(=O)N[C@@H](CC(N)=O)C(=O)N[C@H]5C(=O)N[C@H]3C(=O)N[C@H](C(=O)N[C@H](C(=O)O)c5cc(O)cc(O)c5-c5cc3ccc5O)[C@H](O)c3ccc(c(Cl)c3)O4)O[C@H](CO)[C@@H](O)[C@@H]2O)O[C@@H](C)[C@H]1O)C(=O)OC (stereo not given in full) | 2 (≈ 1.22 µM) | 4 (≈ 2.45 µM)
CN[C@H](CC(C)C)C(=O)N[C@H]1C(=O)N[C@@H](CC(N)=O)C(=O)N[C@H]2C(=O)N[C@H]3C(=O)N[C@H](C(=O)N[C@H](C(=O)O)c4cc(O)cc(O)c4-c4cc3ccc4O)[C@H](O)c3ccc(c(Cl)c3)Oc3cc2cc(c3O[C@@H]2O[C@H](CO)[C@@H](O)[C@H](O)[C@H]2O[C@H]2C[C@](C)(NCC(OCc3ccccc3)C(=O)O)[C@H](O)[C@H](C)O2)Oc2ccc(cc2Cl)[C@H]1O (stereo not given in full) | 16 (≈ 9.83 µM) | 64 (≈ 39.3 µM)
CN[C@H](CC(C)C)C(=O)N[C@H]1C(=O)N[C@@H](CC(N)=O)C(=O)N[C@H]2C(=O)N[C@H]3C(=O)N[C@H](C(=O)N[C@H](C(=O)O)c4cc(O)cc(O)c4-c4cc3ccc4O)[C@H](O)c3ccc(c(Cl)c3)Oc3cc2cc(c3O[C@@H]2O[C@H](CO)[C@@H](O)[C@H](O)[C@H]2O[C@H]2C[C@](C)(NCC(OCc3ccc(-c4ccc(Cl)cc4)cc3)C(=O)O)[C@H](O)[C@H](C)O2)Oc2ccc(cc2Cl)[C@H]1O (stereo not given in full) | < 0.125 | 2 (≈ 1.15 µM)
CCCCOC(CN[C@@]1(C)C[C@H](O[C@H]2[C@H](Oc3c4cc5cc3Oc3ccc(cc3Cl)[C@@H](O)[C@@H](NC(=O)[C@@H](CC(C)C)NC)C(=O)N[C@@H](CC(N)=O)C(=O)N[C@H]5C(=O)N[C@H]3C(=O)N[C@H](C(=O)N[C@H](C(=O)O)c5cc(O)cc(O)c5-c5cc3ccc5O)[C@H](O)c3ccc(c(Cl)c3)O4)O[C@H](CO)[C@@H](O)[C@@H]2O)O[C@@H](C)[C@H]1O)C(=O)O (stereo not given in full) | 64 (≈ 40.2 µM) | 128 (≈ 80.3 µM)
CCCCCCOC(CN[C@@]1(C)C[C@H](O[C@H]2[C@H](Oc3c4cc5cc3Oc3ccc(cc3Cl)[C@@H](O)[C@@H](NC(=O)[C@@H](CC(C)C)NC)C(=O)N[C@@H](CC(N)=O)C(=O)N[C@H]5C(=O)N[C@H]3C(=O)N[C@H](C(=O)N[C@H](C(=O)O)c5cc(O)cc(O)c5-c5cc3ccc5O)[C@H](O)c3ccc(c(Cl)c3)O4)O[C@H](CO)[C@@H](O)[C@@H]2O)O[C@@H](C)[C@H]1O)C(=O)O (stereo not given in full) | 4 (≈ 2.47 µM) | 8 (≈ 4.93 µM)
CN[C@H](CC(C)C)C(=O)N[C@H]1C(=O)N[C@@H](CC(N)=O)C(=O)N[C@H]2C(=O)N[C@H]3C(=O)N[C@H](C(=O)N[C@H](C(=O)O)c4cc(O)cc(O)c4-c4cc3ccc4O)[C@H](O)c3ccc(c(Cl)c3)Oc3cc2cc(c3O[C@@H]2O[C@H](CO)[C@@H](O)[C@H](O)[C@H]2O[C@H]2C[C@](C)(N)[C@H](O)[C@H](C)O2)Oc2ccc(cc2Cl)[C@H]1O [VANCOMYCIN] | 2 (≈ 1.38 µM) | 8 (≈ 5.52 µM)
